Measurements reported in publication PMC7150648 (ACS infectious diseases, 2020).
“Also recorded” adds a separate entry of the source. Read-outs that look alike come from different tables or passages of the source.

Key:
LasR [1] = target: T1, LasR (Pseudomonas aeruginosa, UniProt P25084); conditions: P. aeruginosa LasR reporter; ref [30]; cited from earlier work
LasR [2] = target: T1, LasR; conditions: result in words; ref Wu et al., FASEB J. 2016; cited from earlier work
MexAB-OprM efflux pump = conditions: P. aeruginosa; ref [16]; cited from earlier work
QscR = QscR (Pseudomonas aeruginosa, UniProt G3XD77); format: cell-based; conditions: E. coli reporter; result in words
LasR [3] = target: T1, LasR; conditions: 50 μM compound; 16 h protein production
LasR [4] = target: T1, LasR; assay: E. coli LasR β-galactosidase reporter, wild-type LasR; format: cell-based; conditions: result in words
LasR S129A mutant = LasR S129A mutant (Pseudomonas aeruginosa, UniProt P25084, S129A); assay: E. coli LasR mutant reporter, S129A; format: cell-based; conditions: result in words
LasR Y56F mutant = LasR Y56F mutant (Pseudomonas aeruginosa, UniProt P25084, Y56F); assay: E. coli LasR mutant reporter, Y56F; format: cell-based; conditions: result in words
LasR [5] = target: T1, LasR; assay: LasR antagonism, P. aeruginosa PAO-JP2 GFP reporter, in competition with OdDHL; format: cell-based
RhlR = RhlR (Pseudomonas aeruginosa, UniProt P54292); assay: E. coli RhlR β-galactosidase reporter; format: cell-based; conditions: result in words
LasR W60F mutant = LasR W60F mutant (Pseudomonas aeruginosa, UniProt P25084, W60F); assay: E. coli LasR mutant reporter, W60F; format: cell-based; conditions: 100 μM vs OdDHL at its EC50; result in words
LasR [6] = target: T1, LasR; assay: LasR agonism, P. aeruginosa PAO-JP2 GFP reporter, compound alone; format: cell-based; conditions: result in words

For `O=C(Cc1ccc(Br)cc1)N[C@H]1CCOC1=O` [4-bromo PHL], the IC50 (LasR [1]) is given as 116 µM.

For `CCCCC[C@H](O)/C=C/C=C\C=C\C=C\[C@@H](O)[C@@H](O)CCCC(=O)O` [Lipoxin A], the IC50 (LasR [2]) is given as “nanomolar IC50”.

For `CCCCCCCCCNC(=O)CC(=O)c1ccccc1` [V-06–018, N-nonyl-3-oxo-3-phenylpropanamide], the “active efflux by MexAB-OprM” value (MexAB-OprM efflux pump) is listed as “not actively effluxed”, the “activity in QscR (antagonist or agonist)” value (QscR) is listed as “only a very weak antagonist; also recorded: only a weak QscR antagonist” and the “soluble (S) LasR band intensity relative to whole cell (WC) band” value (LasR [3]) is listed as ~ 7%. The “activity in LasR (antagonist in competition, agonist alone)” value (LasR [4]) was “only an antagonist of LasR; also recorded: does not agonize wild-type LasR”, the “LasR S129A antagonism compared with wild-type LasR” value (LasR S129A mutant; 100 μM vs OdDHL at its EC50) was “significantly lesser extent than wild-type LasR” and the “LasR S129A agonism compared with wild-type LasR” value (LasR S129A mutant; 100 μM) was “significantly more than wild-type LasR”. For the same compound, the “LasR Y56F antagonism compared with wild-type LasR” value (LasR Y56F mutant; 100 μM vs OdDHL at its EC50) was “significantly lesser extent than wild-type LasR”, the “LasR Y56F agonism compared with wild-type LasR” value (LasR Y56F mutant; 100 μM) was “significantly greater extent than wild-type LasR” and the IC50 (LasR [5]) was 3.9 µM. The “LasR antagonism, primary screen” value (LasR [5]; PAO-JP2, compound 10 μM vs 150 nM OdDHL) was ~ 90%, the IC50 (LasR [5]; PAO-JP2, vs 150 nM OdDHL (approximate EC50)) was 2.3 µM and the “Maximum Inhibition” value (LasR [5]; PAO-JP2, vs 150 nM OdDHL, best-fit bottom of dose-response curve) was 89%. For the same compound, the “activity in RhlR (antagonist or agonist)” value (RhlR) was “no activity (as either an antagonist or agonist)”, the “LasR W60F antagonism compared with wild-type LasR” value (LasR W60F mutant) was “significantly lesser extent than wild-type LasR” and the “LasR activation in dose-response agonism curves” value (LasR [6]) was “did not activate LasR”.
